Measurements reported in patent US12077503B2, “Substituted cyclic amides and their use as herbicides” (FMC CORPORATION, priority 2015, dated 2024).

Columns and labels:
Assay type in all cases: in vivo
[1] = system: barnyardgrass (Echinochloa crus-galli); assay: Test A preemergence; settings: Echinochloa crus-galli, pre-emergence, 240 h
How it was run: (§1)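 Visual injury scores from 0, no effect, to 100, complete control, were assigned versus untreated controls roughly 10 d after treatment in the greenhouse. Test chemicals, formulated with surfactant in a non-phytotoxic solvent, were applied to planted seeds as a preemergence soil spray or postemergence to one- to two-leaf plants 2 to 10 cm tall, in loam–sand soil.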

[2] = system: pigweed (Amaranthus retroflexus); assay: Test A preemergence; settings: Amaranthus retroflexus, pre-emergence, 240 h
[3] = system: giant foxtail (Setaria faberii); assay: Test A preemergence; settings: Setaria faberi, pre-emergence, 240 h
How it was run: as §1

[4] = system: ryegrass, Italian (Italian ryegrass, Lolium multiflorum); assay: Test A preemergence; settings: Lolium multiflorum, pre-emergence, 240 h
How it was run: as §1

Kochia (Kochia scoparia) [5] = assay: Test A preemergence; settings: Bassia scoparia, pre-emergence, 240 h
How it was run: as §1

[6] = system: ragweed (common ragweed, Ambrosia elatior); assay: Test A preemergence; settings: Ambrosia artemisiifolia, pre-emergence, 240 h
How it was run: as §1

[7] = system: barnyardgrass (Echinochloa crus-galli); assay: Test A postemergence; settings: Echinochloa crus-galli, post-emergence, 240 h, read-out: Plant response rating, Barnyardgrass
How it was run: as §1

[8] = system: wheat (Triticum aestivum); assay: Test A postemergence; settings: Triticum aestivum, post-emergence, 240 h, read-out: Plant response rating, Wheat
How it was run: as §1

[9] = system: Galium (catchweed bedstraw, Galium aparine); assay: Test A postemergence; settings: Galium, post-emergence, 240 h, read-out: Plant response rating, Galium
How it was run: as §1

[10] = system: pigweed (Amaranthus retroflexus); assay: Test A postemergence; settings: Amaranthus retroflexus, post-emergence, 240 h, read-out: Plant response rating, Pigweed
How it was run: as §1

[11] = system: giant foxtail (Setaria faberii); assay: Test A postemergence; settings: Setaria faberi, post-emergence, 240 h, read-out: Plant response rating, Foxtail, Giant
How it was run: as §1

[12] = system: blackgrass (Alopecurus myosuroides); assay: Test A postemergence; settings: Alopecurus myosuroides, post-emergence, 240 h, read-out: Plant response rating, Blackgrass
How it was run: as §1

[13] = system: ryegrass, Italian (Italian ryegrass, Lolium multiflorum); assay: Test A postemergence; settings: Lolium multiflorum, post-emergence, 240 h, read-out: Plant response rating, Ryegrass, Italian
How it was run: as §1

Kochia (Kochia scoparia) [14] = assay: Test A postemergence; settings: Bassia scoparia, post-emergence, 240 h, read-out: Plant response rating, Kochia
How it was run: as §1

corn (Zea mays) = assay: Test A postemergence; settings: Zea mays, post-emergence, 240 h
How it was run: as §1

[15] = system: ragweed (common ragweed, Ambrosia elatior); assay: Test A postemergence; settings: Ambrosia artemisiifolia, post-emergence, 240 h, read-out: Plant response rating, Ragweed
How it was run: as §1

[16] = system: barnyardgrass (Echinochloa crus-galli); assay: Test B flooded paddy test; settings: Echinochloa crus-galli, 250 g ai/ha, Flood; 0 to 100 scale where 0 is no effect and 100 is complete control; read-out: Barnyardgrass plant response rating
How it was run: (§2)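 Response scored visually against untreated controls, 0 = no effect and 100 = complete control, 13–15 d after treatment in the greenhouse. Compounds added to paddy water held 3 cm above soil surface. Treatment given at 2-leaf stage.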

rice (Oryra sativa) = assay: Test B flooded paddy test; settings: Oryza sativa, 250 g ai/ha, Flood; 0 to 100 scale where 0 is no effect and 100 is complete control; read-out: Rice plant response rating
How it was run: as §2

[17] = system: sedge, umbrella (small-flower umbrella sedge, Cyperus difformis); assay: Test B flooded paddy test; settings: Cyperus difformis, 250 g ai/ha, Flood; 0 to 100 scale where 0 is no effect and 100 is complete control; read-out: Sedge, Umbrella plant response rating
How it was run: as §2

[18] = system: ducksalad (Heteranthera limosa); assay: Test B flooded paddy test; settings: Heteranthera limosa, 250 g ai/ha, Flood; 0 to 100 scale where 0 is no effect and 100 is complete control; read-out: Ducksalad plant response rating
How it was run: as §2

[19] = 125 g ai/ha, Postemergence, visual injury after approximately 10 d, 0 to 100 scale where 0 is no effect and 100 is complete control
[20] = 500 g ai/ha, postemergence, visual injury, 0 to 100 scale (0 no effect, 100 complete control), approx. 10 d

For `Cc1cc([C@H]2CN(C)C(=O)[C@@H]2C(=O)Nc2ccccc2F)cc(C)c1Br` [Compound 1023], which pest or weed control at 125 g/ha ([1]; 125 g ai/ha, Preemergence, visual injury rating after approximately 10 d, read-out: Barnyardgrass plant response rating (0 to 100 scale, 0 is no effect, 100 is complete control)) is on record?
The pest or weed control at 125 g/ha was 90%.

And the pest or weed control at 500 g/ha ([1]; 500 g ai/ha, preemergence, visual injury rating about 10 d after treatment, 0 to 100 scale (0 no effect, 100 complete control), read-out: Barnyardgrass plant response rating)?
Its pest or weed control at 500 g/ha is 90%.

What about the pest or weed control at 125 g/ha ([2]; 125 g ai/ha, Preemergence, visual injury rating after approximately 10 d, read-out: Pigweed plant response rating (0 to 100 scale, 0 is no effect, 100 is complete control)) of the same compound?
Its pest or weed control at 125 g/ha is 30%.

And the pest or weed control at 500 g/ha ([2]; 500 g ai/ha, preemergence, visual injury rating about 10 d after treatment, 0 to 100 scale (0 no effect, 100 complete control), read-out: Pigweed plant response rating)?
Its pest or weed control at 500 g/ha is 30%.

What about the pest or weed control at 125 g/ha ([3]; 125 g ai/ha, Preemergence, visual injury rating after approximately 10 d, read-out: Foxtail, Giant plant response rating (0 to 100 scale, 0 is no effect, 100 is complete control)) of the same compound?
The pest or weed control at 125 g/ha was 90%.

And the pest or weed control at 500 g/ha ([3]; 500 g ai/ha, preemergence, visual injury rating about 10 d after treatment, 0 to 100 scale (0 no effect, 100 complete control), read-out: Foxtail, Giant plant response rating)?
Its pest or weed control at 500 g/ha is 90%.

And the pest or weed control at 125 g/ha ([4]; 125 g ai/ha, Preemergence, visual injury rating after approximately 10 d, read-out: Ryegrass, Italian plant response rating (0 to 100 scale, 0 is no effect, 100 is complete control))?
Its pest or weed control at 125 g/ha is 50%.

And the pest or weed control at 500 g/ha ([4]; 500 g ai/ha, preemergence, visual injury rating about 10 d after treatment, 0 to 100 scale (0 no effect, 100 complete control), read-out: Ryegrass, Italian plant response rating)?
Its pest or weed control at 500 g/ha is 70%.

What about the pest or weed control at 125 g/ha (Kochia (Kochia scoparia) [5]; 125 g ai/ha, Preemergence, visual injury rating after approximately 10 d, read-out: Kochia plant response rating (0 to 100 scale, 0 is no effect, 100 is complete control)) of the same compound?
The pest or weed control at 125 g/ha was 0%.

What about the pest or weed control at 500 g/ha (Kochia (Kochia scoparia) [5]; 500 g ai/ha, preemergence, visual injury rating about 10 d after treatment, 0 to 100 scale (0 no effect, 100 complete control), read-out: Kochia plant response rating) of the same compound?
Its pest or weed control at 500 g/ha is 0%.

And the pest or weed control at 125 g/ha ([6]; 125 g ai/ha, Preemergence, visual injury rating after approximately 10 d, read-out: Ragweed plant response rating (0 to 100 scale, 0 is no effect, 100 is complete control))?
Its pest or weed control at 125 g/ha is 0%.

What about the pest or weed control at 500 g/ha ([6]; 500 g ai/ha, preemergence, visual injury rating about 10 d after treatment, 0 to 100 scale (0 no effect, 100 complete control), read-out: Ragweed plant response rating) of the same compound?
Its pest or weed control at 500 g/ha is 40%.

What about the pest or weed control at 125 g/ha [7, 19] of the same compound?
Its pest or weed control at 125 g/ha is 90%.

What about the pest or weed control at 500 g/ha [7, 20] of the same compound?
The pest or weed control at 500 g/ha was 90%.

And the plant injury at 125 g/ha [8, 19]?
Its plant injury at 125 g/ha is 0%.

What about the plant injury at 500 g/ha [8, 20] of the same compound?
The plant injury at 500 g/ha was 20%.

And the pest or weed control at 125 g/ha [9, 19]?
The pest or weed control at 125 g/ha was 60%.

What about the pest or weed control at 500 g/ha [9, 20] of the same compound?
Its pest or weed control at 500 g/ha is 60%.

What about the pest or weed control at 125 g/ha [10, 19] of the same compound?
The pest or weed control at 125 g/ha was 0%.

What about the pest or weed control at 500 g/ha [10, 20] of the same compound?
The pest or weed control at 500 g/ha was 30%.

And the pest or weed control at 125 g/ha [11, 19]?
The pest or weed control at 125 g/ha was 70%.

And the pest or weed control at 500 g/ha [11, 20]?
The pest or weed control at 500 g/ha was 90%.

And the pest or weed control at 125 g/ha [12, 19]?
Its pest or weed control at 125 g/ha is 0%.

And the pest or weed control at 500 g/ha [12, 20]?
The pest or weed control at 500 g/ha was 20%.

And the pest or weed control at 125 g/ha [13, 19]?
Its pest or weed control at 125 g/ha is 30%.

And the pest or weed control at 500 g/ha [13, 20]?
Its pest or weed control at 500 g/ha is 30%.

And the pest or weed control at 125 g/ha (Kochia (Kochia scoparia) [14]; [19])?
Its pest or weed control at 125 g/ha is 50%.

What about the pest or weed control at 500 g/ha (Kochia (Kochia scoparia) [14]; [20]) of the same compound?
Its pest or weed control at 500 g/ha is 50%.

What about the Corn plant response rating (crop injury, 0 = no effect, 100 = complete kill) at 125 g/ha (corn (Zea mays); [19]) of the same compound?
The Corn plant response rating (crop injury, 0 = no effect, 100 = complete kill) at 125 g/ha was 0%.

And the Corn plant response rating (crop injury, 0 = no effect, 100 = complete kill) at 500 g/ha (corn (Zea mays); [20])?
Its Corn plant response rating (crop injury, 0 = no effect, 100 = complete kill) at 500 g/ha is 50%.

What about the pest or weed control at 125 g/ha [15, 19] of the same compound?
Its pest or weed control at 125 g/ha is 0%.

What about the pest or weed control at 500 g/ha [15, 20] of the same compound?
Its pest or weed control at 500 g/ha is 0%.

And the pest or weed control at 250 g/ha [16]?
Its pest or weed control at 250 g/ha is 40%.

What about the pest or weed control at 250 g/ha (rice (Oryra sativa)) of the same compound?
Its pest or weed control at 250 g/ha is 20%.

And the pest or weed control at 250 g/ha [17]?
The pest or weed control at 250 g/ha was 0%.

And the pest or weed control at 250 g/ha [18]?
Its pest or weed control at 250 g/ha is 65%.
